Reference: patent US8901118B2, “Compounds and methods for kinase modulation, and indications therefor” (Plexxikon Inc., priority 2010, dated 2014)

How the values were obtained:
c-Kit kinase = c-Kit kinase (Homo sapiens, UniProt P10721); test: c-Kit kinase biochemical activity assay (AlphaScreen, biotin-(E4Y)10 phosphorylation); details: 100 μM ATP; read-out: Biochemical Inhibition IC50 Kit
Method in brief: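 Phosphorylation of 30 nM biotin-(E4Y)10 by c-Kit (0.75 ng per reaction) with 100 µM ATP in HEPES pH 7.5 buffer with Mg2+/Mn2+, 5% DMSO, 1 h at room temperature; 8-point 1:2 compound dilutions. AlphaScreen detection with streptavidin donor and PY20 acceptor beads after EDTA stop. IC50 from signal versus concentration.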

BCR-FMS BaF3 cells = biological target: T1, BCR-FMS BaF3 cells (Homo sapiens, UniProt P07333); test: BaF3 BCR-FMS cell proliferation assay (ATPlite); type: cell-based; details: read-out: Inhibition of Cell Proliferation IC50, BCR/BaF3 Fms
T1 construct: fused on or other part: P11274 (Breakpoint cluster region protein)
T1 sequence (P07333 582-910): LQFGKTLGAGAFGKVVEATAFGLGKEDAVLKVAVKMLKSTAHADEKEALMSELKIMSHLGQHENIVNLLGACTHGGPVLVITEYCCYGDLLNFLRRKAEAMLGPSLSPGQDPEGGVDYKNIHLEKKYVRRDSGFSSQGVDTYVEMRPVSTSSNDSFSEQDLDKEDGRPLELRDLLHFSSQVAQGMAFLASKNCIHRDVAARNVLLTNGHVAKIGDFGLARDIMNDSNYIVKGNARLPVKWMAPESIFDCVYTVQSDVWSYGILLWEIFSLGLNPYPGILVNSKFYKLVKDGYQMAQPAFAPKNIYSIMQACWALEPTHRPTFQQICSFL
Method in brief: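 BaF3 cells expressing BCR fusions were plated at 10,000 cells/well without IL-3, and MV-4-11 cells at 25,000 cells/well. Cells were treated the next day with an 8-point 1:3 dilution series (top 10 μM final) and incubated 3 days at 37 °C. ATPlite luminescence gave cell number, from which IC50 was fitted.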

c-Kit kinase, sequence (P10721 26-976): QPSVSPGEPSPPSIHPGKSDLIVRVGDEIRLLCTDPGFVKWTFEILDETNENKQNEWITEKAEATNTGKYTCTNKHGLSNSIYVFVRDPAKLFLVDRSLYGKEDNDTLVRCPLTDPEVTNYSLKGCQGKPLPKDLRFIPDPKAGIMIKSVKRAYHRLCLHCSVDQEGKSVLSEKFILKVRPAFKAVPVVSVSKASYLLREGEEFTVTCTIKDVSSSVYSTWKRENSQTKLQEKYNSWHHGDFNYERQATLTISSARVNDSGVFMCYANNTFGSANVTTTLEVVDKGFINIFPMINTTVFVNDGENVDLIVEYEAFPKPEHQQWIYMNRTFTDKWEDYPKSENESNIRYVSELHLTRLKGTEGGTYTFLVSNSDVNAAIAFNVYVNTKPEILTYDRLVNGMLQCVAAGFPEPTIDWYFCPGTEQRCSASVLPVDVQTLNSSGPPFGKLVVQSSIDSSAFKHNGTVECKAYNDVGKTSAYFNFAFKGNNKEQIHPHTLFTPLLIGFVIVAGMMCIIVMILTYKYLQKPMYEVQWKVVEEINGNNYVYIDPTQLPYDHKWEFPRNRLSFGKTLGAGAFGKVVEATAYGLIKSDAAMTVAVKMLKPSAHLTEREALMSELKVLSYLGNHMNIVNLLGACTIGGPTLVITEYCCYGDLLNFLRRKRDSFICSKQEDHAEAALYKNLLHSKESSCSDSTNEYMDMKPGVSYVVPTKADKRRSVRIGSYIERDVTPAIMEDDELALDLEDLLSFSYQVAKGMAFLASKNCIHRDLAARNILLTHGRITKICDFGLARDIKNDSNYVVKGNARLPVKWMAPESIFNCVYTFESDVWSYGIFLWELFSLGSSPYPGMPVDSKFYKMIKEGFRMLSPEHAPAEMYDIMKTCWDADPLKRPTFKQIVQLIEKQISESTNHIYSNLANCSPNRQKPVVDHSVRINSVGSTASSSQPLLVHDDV

Compound | IC50 (c-Kit kinase) | IC50 (BCR-FMS BaF3 cells)
CCc1ccc(Nc2ccc(C(=O)c3c[nH]c4ncnc(N[C@@H](C)c5ccc(F)cc5)c34)c(F)n2)cn1 [Compound P-4097, [6-[(6-ethyl-3-pyridyl)amino]-2-fluoro-3-pyridyl]-[4-[[(1S)-1-(4-fluorophenyl)ethyl]amino]-7H-pyrrolo[2,3-d]pyrimidin-5-yl]methanone] | < 1000 nM | < 100 nM
CCc1ccc(Nc2ccc(C(=O)c3c[nH]c4ncnc(NCCCOC)c34)c(F)n2)cn1 [Compound P-4098, [6-[(6-ethyl-3-pyridyl)amino]-2-fluoro-3-pyridyl]-[4-(3-methoxypropylamino)-7H-pyrrolo[2,3-d]pyrimidin-5-yl]methanone] | < 100 nM | < 100 nM
CCc1ccc(Nc2ccc(C(=O)c3c[nH]c4ncnc(NC5CCCC5)c34)c(F)n2)cn1 [Compound P-4099, [4-(cyclopentylamino)-7H-pyrrolo[2,3-d]pyrimidin-5-yl]-[6-[(6-ethyl-3-pyridyl)amino]-2-fluoro-3-pyridyl]methanone] | < 100 nM | < 10 nM
CCCCNc1ncnc2[nH]cc(C(=O)c3ccc(Nc4ccc(CC)nc4)nc3F)c12 [Compound P-4100, [4-(butylamino)-7H-pyrrolo[2,3-d]pyrimidin-5-yl]-[6-[(6-ethyl-3-pyridyl)amino]-2-fluoro-3-pyridyl]methanone] | < 100 nM | < 100 nM
CC(C)Nc1ncnc2[nH]cc(C(=O)c3ccc(NC4CCCCC4)nc3F)c12 [Compound P-4101, [6-(cyclohexylamino)-2-fluoro-3-pyridyl]-[4-(isopropylamino)-7H-pyrrolo[2,3-d]pyrimidin-5-yl]methanone] | < 1000 nM | < 10 nM
CNc1ncnc2[nH]cc(C(=O)c3ccc(NC4CCCCC4)nc3F)c12 [Compound P-4102, [6-(cyclohexylamino)-2-fluoro-3-pyridyl]-[4-(methylamino)-7H-pyrrolo[2,3-d]pyrimidin-5-yl]methanone] | < 1000 nM | < 10 nM
COc1cncc(Nc2ccc(C(=O)c3c[nH]c4ncnc(NCC(F)(F)F)c34)c(F)n2)c1 [Compound P-4103, [2-fluoro-6-[(5-methoxy-3-pyridyl)amino]-3-pyridyl]-[4-(2,2,2-trifluoroethylamino)-7H-pyrrolo[2,3-d]pyrimidin-5-yl]methanone] | < 1000 nM | < 100 nM
COc1cncc(Nc2ccc(C(=O)c3c[nH]c4ncnc(NC5CCCCC5)c34)c(F)n2)c1 [Compound P-4104, [4-(cyclohexylamino)-7H-pyrrolo[2,3-d]pyrimidin-5-yl]-[2-fluoro-6-[(5-methoxy-3-pyridyl)amino]-3-pyridyl]methanone] | < 1000 nM | < 100 nM
CCCNc1ncnc2[nH]cc(C(=O)c3ccc(Nc4cncc(OC)c4)nc3F)c12 [Compound P-4105, [2-fluoro-6-[(5-methoxy-3-pyridyl)amino]-3-pyridyl]-[4-(propylamino)-7H-pyrrolo[2,3-d]pyrimidin-5-yl]methanone] | > 1000 nM | < 100 nM
COc1cncc(Nc2ccc(C(=O)c3c[nH]c4ncnc(NC(C)C)c34)c(F)n2)c1 [Compound P-4106, [2-fluoro-6-[(5-methoxy-3-pyridyl)amino]-3-pyridyl]-[4-(isopropylamino)-7H-pyrrolo[2,3-d]pyrimidin-5-yl]methanone] | < 1000 nM | < 100 nM
COc1cncc(Nc2ccc(C(=O)c3c[nH]c4ncnc(NC5CC5)c34)c(F)n2)c1 [Compound P-4107, [4-(cyclopropylamino)-7H-pyrrolo[2,3-d]pyrimidin-5-yl]-[2-fluoro-6-[(5-methoxy-3-pyridyl)amino]-3-pyridyl]methanone] | < 100 nM | < 100 nM
CNc1ncnc2[nH]cc(C(=O)c3ccc(Nc4cncc(OC)c4)nc3F)c12 [Compound P-4108, [2-fluoro-6-[(5-methoxy-3-pyridyl)amino]-3-pyridyl]-[4-(methylamino)-7H-pyrrolo[2,3-d]pyrimidin-5-yl]methanone] | < 1000 nM | < 100 nM
